According to ChEMBL document CHEMBL5584227, “Piezo1 and its inhibitors: Overview and perspectives” (Eur J Med Chem, 2024):
pIC50: −log10 of the molar value.

How the values were obtained:
Piezo1 (Homo sapiens) [1] = assay: Inhibition of human Piezo1 assessed as intracellular calcium influx measured for 30 mins by Fluo-4 AM dye based fluorescence analysis
[2] = molecular target: Amyloid-beta precursor protein (Homo sapiens, UniProt P05067); assay: Inhibition of amyloid beta (1 to 42) (unknown origin) aggregation incubated for 24 hrs by ThT assay
Sequence of Amyloid-beta precursor protein (P05067 whole entry): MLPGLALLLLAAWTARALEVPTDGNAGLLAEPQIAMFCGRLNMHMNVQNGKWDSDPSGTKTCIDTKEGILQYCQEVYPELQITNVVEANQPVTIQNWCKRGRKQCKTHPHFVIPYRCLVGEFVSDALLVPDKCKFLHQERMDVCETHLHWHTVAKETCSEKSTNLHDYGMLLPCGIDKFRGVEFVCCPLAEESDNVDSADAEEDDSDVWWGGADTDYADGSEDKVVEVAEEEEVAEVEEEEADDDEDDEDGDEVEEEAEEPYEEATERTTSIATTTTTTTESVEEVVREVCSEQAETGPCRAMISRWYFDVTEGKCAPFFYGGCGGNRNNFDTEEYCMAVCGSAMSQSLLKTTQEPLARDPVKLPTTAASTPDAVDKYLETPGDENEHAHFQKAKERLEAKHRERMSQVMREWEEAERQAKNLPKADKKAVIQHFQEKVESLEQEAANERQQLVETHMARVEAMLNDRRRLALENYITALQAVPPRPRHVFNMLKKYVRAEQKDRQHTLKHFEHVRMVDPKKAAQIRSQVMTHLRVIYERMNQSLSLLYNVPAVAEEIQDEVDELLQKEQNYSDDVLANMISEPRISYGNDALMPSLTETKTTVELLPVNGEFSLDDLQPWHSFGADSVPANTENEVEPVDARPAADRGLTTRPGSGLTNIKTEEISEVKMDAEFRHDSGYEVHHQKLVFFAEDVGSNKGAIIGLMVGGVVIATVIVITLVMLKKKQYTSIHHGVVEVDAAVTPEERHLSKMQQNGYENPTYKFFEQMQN

Piezo1 (Homo sapiens) [3] = assay: Antagonist activity at human Piezo1
Piezo1 (Homo sapiens) [4] = assay: Antagonist activity at Yoda1-activated human Piezo1 in HUVECs assessed as inhibition of calcium influx by calcium fluorescence assay

Structure (SMILES): C[C@@H]1O[C@@H](O[C@H]2[C@H](OC(=O)[C@]34CCC(C)(C)C[C@H]3C3=CC[C@@H]5[C@@]6(C)C[C@H](O)[C@@H]7O[C@@H]8O[C@H](CO)[C@@H](O)[C@H](O)[C@H]8O[C@@H]8OC[C@H](O)[C@H](O)[C@H]8OC(=O)CC(C)(O)CC(=O)OC[C@@]7(C)[C@@H]6CC[C@@]5(C)[C@]3(C)CC4)OC[C@H](O)[C@@H]2O)[C@H](O)[C@H](O[C@@H]2OC[C@@H](O)[C@H](O)[C@H]2O)[C@H]1O (some centres undefined)
- pIC50 (Piezo1 (Homo sapiens) [1]): 5.95

Structure (SMILES): CCCCCCCCCCCCCCCCC(=O)O [HEPTADECANOIC ACID]
- pIC50 [2]: 4.55

Structure (SMILES): Clc1cccc(Cl)c1CSc1nnc(-c2ccc[nH]2)o1
- pIC50 (Piezo1 (Homo sapiens) [3]): 5.89

Structure (SMILES): O=C(/C=C/c1ccc(O)c2c1[C@H](C(=O)O[C@H](Cc1ccc(O)c(O)c1)C(=O)O)[C@@H](c1ccc(O)c(O)c1)O2)O[C@H](Cc1ccc(O)c(O)c1)C(=O)O
- pIC50 (Piezo1 (Homo sapiens) [4]): 5.86
